In ChEMBL document CHEMBL1151557, “Simplified analogs of himbacine displaying potent binding affinity for muscarinic receptors” (Bioorg Med Chem Lett, 1993):

What was measured:
[1] = molecular target: T1, Muscarinic acetylcholine receptor M1 (Homo sapiens, UniProt P11229); assay: Displacement of [3H]QNB from muscarinic receptor 1 expressed in CHO-K1 cells; format: cell-based
T1 sequence (P11229 whole entry): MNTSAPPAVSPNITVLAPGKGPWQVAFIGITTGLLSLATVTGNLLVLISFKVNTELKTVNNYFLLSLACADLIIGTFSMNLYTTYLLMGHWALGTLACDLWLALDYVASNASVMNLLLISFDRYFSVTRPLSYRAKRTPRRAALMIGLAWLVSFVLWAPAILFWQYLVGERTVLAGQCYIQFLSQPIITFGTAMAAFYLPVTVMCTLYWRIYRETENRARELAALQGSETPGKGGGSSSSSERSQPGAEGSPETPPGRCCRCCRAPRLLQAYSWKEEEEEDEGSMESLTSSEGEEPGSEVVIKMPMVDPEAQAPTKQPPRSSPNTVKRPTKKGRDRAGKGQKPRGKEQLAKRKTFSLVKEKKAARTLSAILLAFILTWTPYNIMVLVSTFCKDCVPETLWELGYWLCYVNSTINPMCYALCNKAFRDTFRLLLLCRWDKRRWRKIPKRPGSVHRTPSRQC

[2] = molecular target: T2, Muscarinic acetylcholine receptor M2 (Rattus norvegicus, UniProt P10980); assay: Displacement of [3H]QNB from rat brain stem muscarinic receptor 2 (M2)
T2 sequence (P10980 whole entry): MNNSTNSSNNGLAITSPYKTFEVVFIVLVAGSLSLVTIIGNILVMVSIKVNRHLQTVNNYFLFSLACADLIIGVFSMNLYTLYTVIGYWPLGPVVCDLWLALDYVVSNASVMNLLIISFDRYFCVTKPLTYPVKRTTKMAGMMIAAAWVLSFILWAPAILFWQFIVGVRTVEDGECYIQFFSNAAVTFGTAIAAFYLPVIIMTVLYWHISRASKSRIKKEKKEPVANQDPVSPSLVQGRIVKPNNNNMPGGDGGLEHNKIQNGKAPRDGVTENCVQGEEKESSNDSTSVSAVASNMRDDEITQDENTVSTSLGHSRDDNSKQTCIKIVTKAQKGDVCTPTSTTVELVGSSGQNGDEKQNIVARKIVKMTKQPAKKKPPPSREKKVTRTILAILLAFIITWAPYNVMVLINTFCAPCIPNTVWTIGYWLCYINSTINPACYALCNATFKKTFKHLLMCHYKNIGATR

Structure (SMILES) | Kd [1] | Kd [2]
CN1CCCC[C@H]1/C=C/C1c2ccccc2Cc2ccccc21 | 4.92 nM | 2.19 nM
CN1CCCCC1/C=C/c1c2ccccc2cc2ccccc12 (stereo not given) | 679 nM | 635 nM
CN1CCCCC1/C=C/C1c2ccccc2Cc2ccccc21 (racemic) | 1.75 nM | 20.5 nM
C[C@@H]1OC(=O)[C@H]2C[C@H]3CCCC[C@@H]3[C@@H](/C=C/[C@H]3CCC[C@H](C)N3C)[C@@H]12 [HIMBACINE] | 168 nM | 9.05 nM

Second part, the compound after the results:

Kd [1] | Kd [2] | Structure (SMILES)
24.2 nM | 35 nM | CN1CCCC[C@H]1CC=C1c2ccccc2Cc2ccccc21
11.6 nM | 14.5 nM | CN1CCCC[C@@H]1CC=C1c2ccccc2Cc2ccccc21
2.7 nM | 3 nM | CN1CCCCC1CC=C1c2ccccc2Cc2ccccc21 (racemic)
1.53 nM | 3.17 nM | CN1CCCC[C@@H]1/C=C/C1c2ccccc2Cc2ccccc21
5.23 nM | 22.6 nM | CN1CCCCC1C/C=C/C1c2ccccc2Cc2ccccc21 (stereo not given)
4.99 nM | 7.64 nM | CN1CCCCC1CCC=C1c2ccccc2Cc2ccccc21 (stereo not given)
